Several values for one entry are separate records, joined by “and”; a condition that tells them apart may be missing. Identical values can stand only once.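 Grown in 96-well plates, cells were treated for 48 hours with each compound at five concentrations. Insufficient inhibition: endpoint recorded as highest concentration tested. GI50 marks 50% less growth. TGI: total growth inhibition.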 Bounds are passed on as bounds.

Test systems include HCC-2998 colon; HS 578T breast; HT29 colon; IGROV1 ovarian; KM12 colon; MOLT-4 leukemia; OVCAR-4 ovarian; SF-268 CNS; SK-MEL-2 melanoma; SNB-19 CNS.
Assay in all cases: NCI anticancer screen, dose series, 48 h

For `CC[C@]1(O)CC2CN(CCc3c([nH]c4ccccc34)C(C(=O)OC)(c3cc4c(cc3OC)N(C=O)[C@H]3[C@@](O)(C(=O)OC)[C@H](OC(C)=O)[C@]5(CC)[C@@H]6C[C@@H]6CN6CC[C@]43[C@@H]65)C2)C1` (some centres not stated), the GI50 with HCC-2998 colon, in the test with HS 578T breast, in the test on HT29 colon, in the test with IGROV1 ovarian, in the test on KM12 colon and in the test with MOLT-4 leukemia was less than 3.25 nM each time. In addition, the GI50 with OVCAR-4 ovarian, with SF-268 CNS, in the test with SK-MEL-2 melanoma and in the test with SNB-19 CNS was less than 3.25 nM each time. The TGI was 9230 nM in the test on HCC-2998 colon; greater than 32500 nM in the test with HS 578T breast; 33 nM with HT29 colon; greater than 18000 nM in the test with IGROV1 ovarian; 3.86 nM with KM12 colon; 339 nM in the test with MOLT-4 leukemia. The TGI with OVCAR-4 ovarian is greater than 29900 nM; with SF-268 CNS, 7390 nM; with SK-MEL-2 melanoma it was 3670 nM; in the test on SNB-19 CNS it was greater than 32500 nM.
In the case of `COC(=O)NC1=Nc2ccccc2C(=O)NN1`, the TGI in the test with HCC-2998 colon, with HS 578T breast, in the test with HT29 colon, in the test on IGROV1 ovarian, in the test with KM12 colon and with MOLT-4 leukemia was greater than 100000 nM throughout. Besides, the TGI with OVCAR-4 ovarian, in the test with SF-268 CNS, with SK-MEL-2 melanoma and in the test on SNB-19 CNS was greater than 100000 nM each time.
Turning to `COc1ccc(-c2cc(-c3ccc(Cl)cc3)nc(SCCCC(=O)NO)n2)cc1OC`, the GI50 in the test with HCC-2998 colon is 1500 nM; in the test on HS 578T breast it was 2310 nM; with HT29 colon it was 1460 nM; in the test on IGROV1 ovarian it was 1040 nM; in the test with KM12 colon, 1340 nM; in the test on MOLT-4 leukemia, 855 nM. Moreover, the GI50 is 889 nM with OVCAR-4 ovarian, 1280 nM with SF-268 CNS, 2900 nM in the test on SK-MEL-2 melanoma and 1570 nM in the test with SNB-19 CNS. In addition, the TGI was 3050 nM with HCC-2998 colon; 11100 nM in the test on HS 578T breast; greater than 26000 nM with HT29 colon; 2690 nM with IGROV1 ovarian; 3220 nM in the test on KM12 colon; 12500 nM in the test on MOLT-4 leukemia. In addition, the TGI in the test on OVCAR-4 ovarian came out at 12300 nM; with SF-268 CNS it was 3810 nM; with SK-MEL-2 melanoma, 10800 nM; in the test with SNB-19 CNS, 4430 nM.
Turning to `Cc1cc2c(C(C)C)c(O)c(O)c(/C=N/O)c2c(O)c1-c1c(C)cc2c(C(C)C)c(O)c(O)c(/C=N/O)c2c1O`, the GI50 is 2290 nM in the test with HCC-2998 colon; 2030 nM with HS 578T breast; 3190 nM with HT29 colon; 3540 nM in the test on IGROV1 ovarian; 2360 nM in the test with KM12 colon; 2230 nM in the test on MOLT-4 leukemia. The GI50 was 1330 nM in the test with OVCAR-4 ovarian, 1540 nM in the test with SF-268 CNS, 3470 nM in the test with SK-MEL-2 melanoma and 3320 nM with SNB-19 CNS. For the same molecule, the TGI stood at 6880 nM with HCC-2998 colon; 27400 nM in the test on HS 578T breast; 12500 nM in the test on HT29 colon; 16000 nM in the test with IGROV1 ovarian; 8520 nM in the test on KM12 colon; 7640 nM in the test on MOLT-4 leukemia. Besides, the TGI in the test on OVCAR-4 ovarian came out at 9690 nM; in the test on SF-268 CNS, 11400 nM; with SK-MEL-2 melanoma it was 13800 nM; in the test with SNB-19 CNS it was 23500 nM.
Take `CCN(CC)CCOc1ccc(/C(=C(\C)Cc2ccc(OC)cc2)c2ccc(O)cc2)cc1`: the GI50 with HCC-2998 colon was 1910 nM; in the test with HS 578T breast, 1690 nM; in the test with HT29 colon, 1430 nM; in the test with IGROV1 ovarian, 2980 nM; in the test with KM12 colon it was 1800 nM; in the test with MOLT-4 leukemia it was 1500 nM. In addition, the GI50 in the test on OVCAR-4 ovarian was 2950 nM; in the test with SF-268 CNS, 1860 nM; with SK-MEL-2 melanoma, 1940 nM; in the test with SNB-19 CNS, 2080 nM. The TGI in the test on HCC-2998 colon came out at 3460 nM; with HS 578T breast, 4220 nM; in the test with HT29 colon, 3670 nM; in the test on IGROV1 ovarian it was 10300 nM; in the test with KM12 colon, 3760 nM; in the test on MOLT-4 leukemia, 3520 nM. For the same molecule, the TGI in the test with OVCAR-4 ovarian came out at 9910 nM; with SF-268 CNS it was 4330 nM; with SK-MEL-2 melanoma, 3710 nM; with SNB-19 CNS, 4770 nM.
As to `Cc1cc2c3c(nc4ccccc42)C(=O)c2cccnc2-c3n1`, the GI50 is 311 nM in the test with HCC-2998 colon; 1690 nM with HS 578T breast; 663 nM with HT29 colon; 65.8 nM in the test with IGROV1 ovarian; 142 nM in the test with KM12 colon; 470 nM in the test with MOLT-4 leukemia. Moreover, the GI50 in the test with OVCAR-4 ovarian was 1280 nM; in the test on SF-268 CNS, 786 nM; in the test on SK-MEL-2 melanoma it was 1480 nM; with SNB-19 CNS, 255 nM. The TGI is 1260 nM with HCC-2998 colon; greater than 21900 nM in the test with HS 578T breast; 2030 nM in the test with HT29 colon; 383 nM with IGROV1 ovarian; 529 nM with KM12 colon; 5690 nM in the test on MOLT-4 leukemia. In addition, the TGI in the test on OVCAR-4 ovarian was 4270 nM; in the test on SF-268 CNS it was greater than 19900 nM; in the test with SK-MEL-2 melanoma, 3820 nM; with SNB-19 CNS it was 1660 nM.
`CC[C@@]1(O)C(=O)OCc2c1cc1n(c2=O)Cc2cc3cc(O)ccc3nc2-1`: the GI50 in the test with HCC-2998 colon is 58.9 nM and 72.1 nM; with HT29 colon it was 160 nM and 167 nM; in the test on IGROV1 ovarian, 238 nM; in the test with KM12 colon, 127 nM and 142 nM; in the test with MOLT-4 leukemia, 11 nM; in the test on OVCAR-4 ovarian, 224 nM. The GI50 in the test on SF-268 CNS was 19.2 nM; in the test on SK-MEL-2 melanoma, 174 nM; with SNB-19 CNS it was 9.46 nM. Also, the TGI is 912 nM and 847 nM with HCC-2998 colon; 8520 nM in the test with HS 578T breast; 18400 nM with HT29 colon; 22800 nM and 2670 nM with IGROV1 ovarian; 2340 nM and 5380 nM in the test on KM12 colon; 441 nM and 3170 nM with OVCAR-4 ovarian. For the same molecule, the TGI in the test on SK-MEL-2 melanoma was 2150 nM and 1200 nM; with SNB-19 CNS, 75000 nM and > 23400 nM.
As for `COC(=O)COc1ccccc1/C=C1/N=C(c2ccccc2)N(c2c(C)n(C)n(-c3ccccc3)c2=O)C1=O`, the GI50 with HCC-2998 colon is 47300 nM; with HS 578T breast, greater than 100000 nM; in the test on HT29 colon, greater than 100000 nM; in the test on IGROV1 ovarian it was 46100 nM; in the test on KM12 colon it was 79600 nM; in the test with MOLT-4 leukemia it was greater than 100000 nM. Also, the GI50 was 75100 nM in the test on OVCAR-4 ovarian, greater than 100000 nM in the test with SF-268 CNS, 25000 nM in the test on SK-MEL-2 melanoma and greater than 100000 nM in the test with SNB-19 CNS. For the same molecule, the TGI in the test on HCC-2998 colon, in the test on HS 578T breast, in the test on HT29 colon, in the test with IGROV1 ovarian, in the test on KM12 colon and in the test with MOLT-4 leukemia was greater than 100000 nM throughout. Also, the TGI in the test with OVCAR-4 ovarian is greater than 100000 nM; with SF-268 CNS, greater than 100000 nM; in the test with SK-MEL-2 melanoma, 56400 nM; with SNB-19 CNS it was greater than 100000 nM.

Source of the values: PubChem BioAssay (NCI).
